Laboratory results taken from US10577634B2, “Bioconversion process for producing nylon-7, nylon-7,7 and polyesters” (INVISTA North America S.A.R.L., priority 2011, dated 2020).
pIC50: −log10 of the molar value.

What was measured:
[1] = molecular target: T1, AAR acyl-ACP reductase (YP_400611) (Synechococcus elongatus, UniProt Q54765); conditions: substrate of AAR, octadecanal formed, NADPH-dependent; cited from earlier work
T1 construct: host or cells: E. coli MG1655
T1 sequence (Q54765 1-341): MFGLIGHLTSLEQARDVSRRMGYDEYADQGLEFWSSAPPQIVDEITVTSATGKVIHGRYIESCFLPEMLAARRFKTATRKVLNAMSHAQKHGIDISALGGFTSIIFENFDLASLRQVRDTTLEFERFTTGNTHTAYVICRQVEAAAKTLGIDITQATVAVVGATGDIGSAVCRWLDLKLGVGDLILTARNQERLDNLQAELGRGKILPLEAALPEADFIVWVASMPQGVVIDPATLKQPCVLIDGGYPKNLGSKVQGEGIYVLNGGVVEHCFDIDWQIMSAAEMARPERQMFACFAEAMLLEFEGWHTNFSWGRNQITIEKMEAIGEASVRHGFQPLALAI

[2] = molecular target: T2, Nocardia sp. carboxylic acid reductase (CAR) (Nocardia iowensis, UniProt Q6RKB1); assay: Spectrophotometric carboxylic acid reductase (CAR) activity assay, change in absorbance at 340 nm; type: biochemical; conditions: for Adjusted for background: gradient of change in absorbance at 340 nm adjusted for background; for gradient of trend line: rate of change in absorbance at 340 nm, CAR cell free extract, substrate added after 2 minutes; for Relative rate % compared to benzoate: relative rate of change in absorbance at 340 nm
T2 construct: made in house; host or cells: E. coli BL-21 (DE3) RP1pPV2-85; cell free extract
T2 sequence (Q6RKB1 1-1174): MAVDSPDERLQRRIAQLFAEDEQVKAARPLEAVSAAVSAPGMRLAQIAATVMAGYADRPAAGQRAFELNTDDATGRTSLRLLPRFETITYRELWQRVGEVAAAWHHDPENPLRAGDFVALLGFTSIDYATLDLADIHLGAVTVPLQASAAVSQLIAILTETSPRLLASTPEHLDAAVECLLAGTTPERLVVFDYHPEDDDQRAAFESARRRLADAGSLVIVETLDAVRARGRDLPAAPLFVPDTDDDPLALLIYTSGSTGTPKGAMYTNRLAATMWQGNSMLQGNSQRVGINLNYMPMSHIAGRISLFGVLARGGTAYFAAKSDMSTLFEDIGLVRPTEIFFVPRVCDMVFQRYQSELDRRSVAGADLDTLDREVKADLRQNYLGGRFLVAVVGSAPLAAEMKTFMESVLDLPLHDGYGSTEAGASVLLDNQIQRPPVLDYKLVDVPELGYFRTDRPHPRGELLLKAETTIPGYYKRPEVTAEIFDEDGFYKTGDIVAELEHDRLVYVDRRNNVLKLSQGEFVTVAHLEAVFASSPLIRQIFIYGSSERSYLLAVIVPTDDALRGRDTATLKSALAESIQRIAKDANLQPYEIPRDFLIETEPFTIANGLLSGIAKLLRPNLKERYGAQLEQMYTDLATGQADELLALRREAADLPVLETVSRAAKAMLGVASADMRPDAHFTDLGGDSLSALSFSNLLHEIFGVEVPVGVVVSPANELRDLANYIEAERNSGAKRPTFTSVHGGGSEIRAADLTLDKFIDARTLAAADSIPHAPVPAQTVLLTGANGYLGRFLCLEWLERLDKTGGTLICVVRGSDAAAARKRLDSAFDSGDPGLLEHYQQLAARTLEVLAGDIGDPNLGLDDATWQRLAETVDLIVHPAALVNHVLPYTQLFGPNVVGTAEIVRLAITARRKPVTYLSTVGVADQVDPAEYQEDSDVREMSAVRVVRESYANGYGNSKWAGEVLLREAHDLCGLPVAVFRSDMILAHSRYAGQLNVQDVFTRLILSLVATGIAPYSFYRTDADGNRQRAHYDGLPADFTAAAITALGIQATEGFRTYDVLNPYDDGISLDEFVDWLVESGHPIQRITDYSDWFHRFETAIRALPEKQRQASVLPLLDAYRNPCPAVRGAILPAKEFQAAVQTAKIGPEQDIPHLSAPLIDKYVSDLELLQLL
Description: The conditions for the assay were taken from Applied and Environmental Microbiology 2004, 70, p 1874-1881.
In a quartz cuvette the following reagents were added: 100 μL MgCl2, 100 μL, ATP, 100 μL NADPH, 200 μL Tris.HCl buffer. The absorbance at 340 nm was measured and recorded and 100 μL of CAR cell free extract was added. The absorbance was monitored and recorded. […] The absorbance monitored over time was subtracted from the initial measurement.

[3] = molecular target: T3, Amino adipate aminotransferase (Q64602) (Bos taurus, UniProt Q5E9N4); conditions: in the presence of pimelic acid; cited from earlier work
T3 construct: Purification and properties of 2-aminoadipate: 2-oxoglutarate aminotransferase from bovine kidney; host or cells: bovine kidney

[4] = tested on: PauA catabolic pimeloyl-CoA ligase; conditions: substrate accepted by PauA, pimelate = 100%; cited from earlier work
[5] = molecular target: T4, ACOT3 (formerly PTE-1a) (Mus musculus, UniProt Q9QYR7); conditions: free CoASH; cited from earlier work
T4 construct: His-tag; host or cells: E. coli
T4 sequence (Q9QYR7 1-432): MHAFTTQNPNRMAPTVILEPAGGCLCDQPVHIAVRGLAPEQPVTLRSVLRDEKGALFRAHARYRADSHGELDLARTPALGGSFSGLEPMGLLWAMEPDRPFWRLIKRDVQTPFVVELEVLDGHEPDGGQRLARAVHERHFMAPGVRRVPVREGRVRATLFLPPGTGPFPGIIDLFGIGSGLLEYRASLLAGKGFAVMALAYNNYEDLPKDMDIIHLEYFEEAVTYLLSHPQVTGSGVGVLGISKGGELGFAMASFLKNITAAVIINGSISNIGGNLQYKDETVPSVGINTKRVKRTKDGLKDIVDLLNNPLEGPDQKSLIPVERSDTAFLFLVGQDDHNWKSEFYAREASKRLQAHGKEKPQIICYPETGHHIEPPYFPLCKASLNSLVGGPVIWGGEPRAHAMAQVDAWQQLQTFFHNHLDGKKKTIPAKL

[6] = molecular target: T5, ACOT8 peroxisomal acyl-CoA thioesterase 8 (Mus musculus, UniProt P58137); conditions: inhibition of ACOT8; cited from earlier work
T5 construct: His-Tag; host or cells: E. coli
T5 sequence (P58137 1-320): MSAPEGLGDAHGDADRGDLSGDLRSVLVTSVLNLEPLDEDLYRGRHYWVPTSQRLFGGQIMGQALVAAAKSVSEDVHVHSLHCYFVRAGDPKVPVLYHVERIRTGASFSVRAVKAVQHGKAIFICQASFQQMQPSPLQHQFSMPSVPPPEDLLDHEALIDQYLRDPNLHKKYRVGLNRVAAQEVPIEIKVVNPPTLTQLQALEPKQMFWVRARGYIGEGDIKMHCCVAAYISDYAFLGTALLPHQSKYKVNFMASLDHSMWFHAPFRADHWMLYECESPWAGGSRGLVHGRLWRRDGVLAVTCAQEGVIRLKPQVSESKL

[7] = molecular target: T6, ACOT4 peroxisomal acyl-CoA thioesterase 4 (Mus musculus, UniProt Q8BWN8); conditions: CoASH at concentrations up to 500 μM; cited from earlier work
T6 construct: His-tag; host or cells: E. coli
T6 sequence (Q8BWN8 1-421): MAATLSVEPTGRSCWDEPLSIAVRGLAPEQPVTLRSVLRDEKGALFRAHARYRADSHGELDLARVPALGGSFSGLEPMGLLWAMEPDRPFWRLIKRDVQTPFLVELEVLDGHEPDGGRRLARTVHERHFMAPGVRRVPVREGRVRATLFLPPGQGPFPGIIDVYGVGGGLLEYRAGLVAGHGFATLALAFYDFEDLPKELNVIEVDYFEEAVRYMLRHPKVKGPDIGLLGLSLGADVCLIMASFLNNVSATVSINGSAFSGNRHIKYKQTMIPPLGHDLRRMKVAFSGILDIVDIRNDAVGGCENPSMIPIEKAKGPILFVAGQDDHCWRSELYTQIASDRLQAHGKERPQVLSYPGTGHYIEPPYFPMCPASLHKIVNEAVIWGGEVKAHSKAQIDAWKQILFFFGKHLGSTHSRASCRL

[8] = molecular target: T7, ACOT5 (formerly PTE-1c) (Mus musculus, UniProt Q6Q2Z6); conditions: free CoASH; cited from earlier work
T7 construct: His-tag; host or cells: E. coli
T7 sequence (Q6Q2Z6 1-421): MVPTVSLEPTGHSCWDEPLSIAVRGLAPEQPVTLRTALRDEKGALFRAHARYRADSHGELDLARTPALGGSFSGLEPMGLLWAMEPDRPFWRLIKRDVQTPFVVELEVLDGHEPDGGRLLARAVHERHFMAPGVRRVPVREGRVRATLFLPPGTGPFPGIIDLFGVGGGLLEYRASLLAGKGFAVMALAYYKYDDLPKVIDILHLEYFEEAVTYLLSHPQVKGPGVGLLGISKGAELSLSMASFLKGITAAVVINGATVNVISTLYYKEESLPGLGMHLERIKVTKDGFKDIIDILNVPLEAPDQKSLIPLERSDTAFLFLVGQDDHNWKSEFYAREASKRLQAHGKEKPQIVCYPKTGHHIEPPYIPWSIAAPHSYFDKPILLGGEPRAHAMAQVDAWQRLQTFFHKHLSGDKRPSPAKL

T3 sequence (Q5E9N4 30-425, one chain of several): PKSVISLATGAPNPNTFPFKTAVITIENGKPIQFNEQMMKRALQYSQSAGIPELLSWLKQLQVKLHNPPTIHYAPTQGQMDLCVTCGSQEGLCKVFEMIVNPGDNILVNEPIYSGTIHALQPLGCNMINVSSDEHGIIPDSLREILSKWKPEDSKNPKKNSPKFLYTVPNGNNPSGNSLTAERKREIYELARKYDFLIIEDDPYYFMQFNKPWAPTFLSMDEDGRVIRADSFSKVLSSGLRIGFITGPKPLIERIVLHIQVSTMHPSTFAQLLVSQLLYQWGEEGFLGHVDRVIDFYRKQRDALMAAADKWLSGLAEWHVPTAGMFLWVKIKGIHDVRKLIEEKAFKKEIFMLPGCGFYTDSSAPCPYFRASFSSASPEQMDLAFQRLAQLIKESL

| Compound | Km [1] [µM] | Adjusted for background [2] | gradient of trend line [2] | Relative rate % compared to benzoate [2] [%] | further results |
| --- | --- | --- | --- | --- | --- |
| oleoyl-ACP | 8 | – | – | – | – |
| CCCCCCCC/C=C\CCCCCCCC(=O)SCCNC(=O)CCNC(=O)[C@H](O)C(C)(C)COP(=O)(O)OP(=O)(O)OC[C@H]1O[C@@H](n2cnc3c(N)ncnc32)[C@H](O)[C@@H]1OP(=O)(O)O [oleoyl-CoA] | 130 | – | – | – | – |
| O=C([O-])CCCCCC(=O)[O-].[Na+].[Na+] [sodium pimelate] | – | 0.0068 | 0.0076 | 51.1 | – |
| O=C(O)CCCCCC(=O)O [pimelic acid] | – | – | – | – | reduction in activity [3]: 30%; activity relative to the activity for benzoic acid ([2]; reduction to pimelic acid semialdehyde by CAR from Nocardia): > 50%; relative activity [4]: 100% |
| CC(C)(COP(=O)(O)OP(=O)(O)OC[C@H]1O[C@@H](n2cnc3c(N)ncnc32)[C@H](O)[C@@H]1OP(=O)(O)O)[C@@H](O)C(=O)NCCC(=O)NCCS [CoASH] | – | – | – | – | inhibition [5]: no inhibition; pIC50 [6]: 4.82 to 5.00; inhibition of the reaction [7]: not inhibited; inhibition [8]: no inhibition |
| O=C([O-])c1ccccc1.[Na+] [sodium benzoate] | – | 0.00133 | 0.0141 | 100 | – |
